Laboratory results reported in ChEMBL document CHEMBL3763036, “Structural optimization of non-nucleoside DNA methyltransferase inhibitor as anti-cancer agent” (Bioorg Med Chem Lett, 2016).

Columns and labels:
NCI-H292 = assay: Antiproliferative activity against human NCI-H292 cells; type: functional, cell-based
[1] = target: DNA (cytosine-5)-methyltransferase 1 (Homo sapiens) (UniProt P26358); assay: Inhibition of DNMT1 in human NCI-H292 cells at 50 uM after 48 hrs by Western blot analysis relative to control; type: cell-based
Chain of DNA (cytosine-5)-methyltransferase 1 (Homo sapiens) (P26358 whole entry): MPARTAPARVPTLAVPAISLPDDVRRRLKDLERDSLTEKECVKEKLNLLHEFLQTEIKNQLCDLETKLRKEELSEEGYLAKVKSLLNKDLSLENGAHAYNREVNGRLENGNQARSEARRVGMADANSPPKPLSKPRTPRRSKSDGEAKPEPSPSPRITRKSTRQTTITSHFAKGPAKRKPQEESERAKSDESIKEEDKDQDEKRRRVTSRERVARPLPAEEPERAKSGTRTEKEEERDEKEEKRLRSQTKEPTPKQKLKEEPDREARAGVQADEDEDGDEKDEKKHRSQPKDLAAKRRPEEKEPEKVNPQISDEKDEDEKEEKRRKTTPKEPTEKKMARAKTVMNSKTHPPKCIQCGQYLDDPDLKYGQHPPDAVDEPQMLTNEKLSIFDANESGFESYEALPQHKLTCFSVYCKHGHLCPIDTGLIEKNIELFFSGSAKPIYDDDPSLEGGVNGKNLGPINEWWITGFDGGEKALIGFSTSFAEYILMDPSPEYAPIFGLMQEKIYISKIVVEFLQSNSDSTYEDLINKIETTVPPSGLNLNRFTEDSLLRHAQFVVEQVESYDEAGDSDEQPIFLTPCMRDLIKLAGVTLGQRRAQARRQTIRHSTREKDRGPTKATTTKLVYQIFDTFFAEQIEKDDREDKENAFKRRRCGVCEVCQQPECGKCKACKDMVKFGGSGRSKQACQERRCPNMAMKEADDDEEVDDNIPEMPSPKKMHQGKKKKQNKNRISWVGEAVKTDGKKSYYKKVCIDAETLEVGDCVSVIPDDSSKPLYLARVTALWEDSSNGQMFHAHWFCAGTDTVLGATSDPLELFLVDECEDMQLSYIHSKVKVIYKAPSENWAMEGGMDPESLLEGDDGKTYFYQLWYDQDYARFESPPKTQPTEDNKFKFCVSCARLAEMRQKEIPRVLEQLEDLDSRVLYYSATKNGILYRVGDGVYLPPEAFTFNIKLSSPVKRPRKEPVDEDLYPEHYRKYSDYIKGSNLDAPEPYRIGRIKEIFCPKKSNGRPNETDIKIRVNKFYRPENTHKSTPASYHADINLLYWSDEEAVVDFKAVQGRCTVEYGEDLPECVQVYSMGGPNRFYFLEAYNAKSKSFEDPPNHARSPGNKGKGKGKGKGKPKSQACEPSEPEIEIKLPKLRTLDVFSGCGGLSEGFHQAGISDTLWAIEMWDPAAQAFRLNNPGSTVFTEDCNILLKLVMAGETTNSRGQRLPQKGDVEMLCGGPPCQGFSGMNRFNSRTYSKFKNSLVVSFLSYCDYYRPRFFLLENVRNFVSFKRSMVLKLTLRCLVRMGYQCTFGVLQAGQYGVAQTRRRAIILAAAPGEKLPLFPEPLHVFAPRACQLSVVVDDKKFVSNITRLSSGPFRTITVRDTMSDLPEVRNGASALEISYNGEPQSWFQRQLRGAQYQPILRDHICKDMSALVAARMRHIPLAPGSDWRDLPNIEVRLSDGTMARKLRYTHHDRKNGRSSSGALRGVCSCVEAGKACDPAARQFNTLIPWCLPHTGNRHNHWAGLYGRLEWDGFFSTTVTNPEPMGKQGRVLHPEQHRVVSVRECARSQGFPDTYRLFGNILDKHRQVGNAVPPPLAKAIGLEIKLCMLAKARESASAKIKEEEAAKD

[2] = target: DNA (cytosine-5)-methyltransferase 1 (Homo sapiens) (UniProt P26358); assay: Inhibition of DNMT1 in human NCI-H292 cells at 100 uM after 48 hrs by Western blot analysis relative to control; type: cell-based

Structure (SMILES)	IC50 (NCI-H292) [µM]	fold change (FC) [1]	fold change (FC) [2]
O=C1N/C(=C\c2ccc(Cl)cc2)C(=O)N1c1ccc(Cl)cc1	35.6	0.99	
O=C1N/C(=C\c2ccc(O)cc2)C(=O)N1c1ccc(Cl)cc1	41.3		1.08
O=C(Nc1ccc(Cl)cc1)c1ccc(N2C(=O)N/C(=C\c3ccc(O)cc3)C2=O)cc1	> 200		
O=C1/C(=C/c2ccc(O)cc2)NC(=S)N1c1ccc(I)cc1	19.7		
CCOC(=O)c1ccc(N2C(=O)N/C(=C\c3ccc(O)cc3)C2=O)cc1	> 200		
O=C(c1cccc(N2C(=O)N/C(=C\c3ccc(O)cc3)C2=O)c1)N1CCCC1	> 200		
COc1cc(/C=C2\NC(=O)N(c3ccc(Cl)cc3)C2=O)cc(OC)c1OC	> 200		
O=C(NCc1ccccc1)c1cccc(N2C(=O)N/C(=C\c3ccc(O)cc3)C2=O)c1	23.5	0.27	
COc1ccc(/C=C2\NC(=O)N(c3ccc(Cl)cc3)C2=O)cc1	32.1	1.19	
O=C1N/C(=C\c2ccc(O)cc2)C(=O)N1c1ccc(Br)cc1	69.9		
O=C1N/C(=C\c2ccc(O)cc2)C(=O)N1c1cccc(I)c1	> 200		
O=C(NCC1CCCCC1)c1ccc(N2C(=O)N/C(=C\c3ccc(O)cc3)C2=O)cc1	> 200		
O=C(NCc1ccccc1)c1ccc(N2C(=O)N/C(=C\c3ccc(O)cc3)C2=O)cc1	> 200		
O=C(O)c1ccc(N2C(=O)N/C(=C\c3ccc(O)cc3)C2=O)cc1	> 200		
COc1cccc(N2C(=O)N/C(=C\c3ccc(O)cc3)C2=O)c1	> 200		
COc1ccc(N2C(=O)N/C(=C\c3ccc(O)cc3)C2=O)cc1	> 200		
O=C1/C(=C/c2ccc(O)cc2)NC(=S)N1c1ccc(Cl)cc1	28.5		
O=C1N/C(=C\c2ccc(O)cc2)C(=O)N1c1cccc(Br)c1	> 200		
O=C(NCC1CCCCC1)c1cccc(N2C(=O)N/C(=C\c3ccc(O)cc3)C2=O)c1	17.9	0.25	
O=C(c1ccc(N2C(=O)N/C(=C\c3ccc(O)cc3)C2=O)cc1)N1CCCC1	> 200		
O=C1N/C(=C\c2ccc(Br)cc2)C(=O)N1c1ccc(Cl)cc1	46.6		
Cc1cccc(N2C(=O)N/C(=C\c3ccc(O)cc3)C2=O)c1	> 200		
Cc1ccc(N2C(=O)N/C(=C\c3ccc(O)cc3)C2=O)cc1	27.9	0.32	
O=C(O)c1cccc(N2C(=O)N/C(=C\c3ccc(O)cc3)C2=O)c1	> 200		
O=C1N/C(=C\c2ccc3ccccc3c2)C(=O)N1c1ccc(Cl)cc1	> 200		
O=C1N/C(=C\c2ccc(O)cc2)C(=O)N1c1ccc(I)cc1	25.5	0.01	
O=C(Nc1ccc(Cl)cc1)c1cccc(N2C(=O)N/C(=C\c3ccc(O)cc3)C2=O)c1	125		
